According to patent US12083124B2 (Incyte Corporation, priority 2019, dated 2024):
pIC50: −log10 of the molar value. Where two headings read alike, the source gives them in different places.

Assays:
[1] = target: wild-type un-phosphorylated FGFR2 (Homo sapiens, UniProt P21802); assay: FGFR Enzymatic Assay (FRET peptide phosphorylation), FGFR2
Procedure: (§1) The inhibitor potency of the exemplified compounds was determined in an enzyme discontinuous assay that measures peptide phosphorylation using FRET measurements to detect product formation. Inhibitors were serially diluted in DMSO and a volume of 0.2 μL was transferred to the wells of a 384-well plate. […] Appropriate controls (enzyme blank and enzyme with no inhibitor) were included on the plate. […] The 10 μL/well reaction concentration of the peptide substrate was 500 nM whereas the ATP concentration was maintained near or below the ATP Km. The ATP Km values were pre-determined in a separate series of experiments. The reaction plate was incubated at 25° C. for 1 hr and the reactions were ended with the addition of 5 μL/well of quench solution (50 mM Tris, 150 mM NaCl, 0.5 mg/mL BSA, pH 7.8; 45 mM EDTA, 600 nM staurosporin, with Perkin Elmer Lance Reagents at 3.75 nM Eu-antibody PY20 and 180 nM APC-Streptavidin). The plate was allowed to equilibrate for ˜10 minutes at ambient temperature before scanning on a PheraStar plate reader (BMG Labtech) instrument.
(§2) Either GraphPad prism or XLfit was used to analyze the data. The IC50 values were derived by fitting the data to a four parameter logistic equation producing a sigmoidal dose-response curve with a variable Hill coefficient. Prism equation: Y=Bottom+(Top-Bottom)/(1+10^((Log IC50-X)*Hill slope)); XLfit equation: Y=(A+((B−A)/(1+((X/C)^D)))) where X is the logarithm of inhibitor concentration and Y is the response.
(§3) GraphPad prism3 was used to analyze the data. The IC50 values were derived by fitting the data to the equation for a sigmoidal dose-response with a variable slope. Y=Bottom+(Top-Bottom)/(1+10^((Log IC50-X)*Hill Slope)) where X is the logarithm of concentration and Y is the response.
(§4) The data in Table 1 was measured in wild-type un-phosphorylated FGFR1, FGFR2, FGFR3, and FGFR4 proteins.

[2] = target: wild-type un-phosphorylated FGFR3 (Homo sapiens, UniProt P22607); assay: FGFR Enzymatic Assay (FRET peptide phosphorylation), FGFR3
Procedure: as §1, §2, §3

[3] = target: wild-type un-phosphorylated FGFR1 (Homo sapiens, UniProt P11362); assay: FGFR Enzymatic Assay (FRET peptide phosphorylation), FGFR1; settings: pre-incubated for 4 hours
[4] = target: wild-type un-phosphorylated FGFR4 (Homo sapiens, UniProt P22455); assay: FGFR Enzymatic Assay (FRET peptide phosphorylation), FGFR4
Procedure: as §1, §2, §3, §4

[5] = read-out: FGFR1, wild-type un-phosphorylated FGFR1
[6] = FGFR1, wild-type un-phosphorylated FGFR1
[7] = read-out: FGFR4, wild-type un-phosphorylated FGFR4, pre-incubated for 4 hours

wild-type un-phosphorylated FGFR2, sequence (P21802 22-821): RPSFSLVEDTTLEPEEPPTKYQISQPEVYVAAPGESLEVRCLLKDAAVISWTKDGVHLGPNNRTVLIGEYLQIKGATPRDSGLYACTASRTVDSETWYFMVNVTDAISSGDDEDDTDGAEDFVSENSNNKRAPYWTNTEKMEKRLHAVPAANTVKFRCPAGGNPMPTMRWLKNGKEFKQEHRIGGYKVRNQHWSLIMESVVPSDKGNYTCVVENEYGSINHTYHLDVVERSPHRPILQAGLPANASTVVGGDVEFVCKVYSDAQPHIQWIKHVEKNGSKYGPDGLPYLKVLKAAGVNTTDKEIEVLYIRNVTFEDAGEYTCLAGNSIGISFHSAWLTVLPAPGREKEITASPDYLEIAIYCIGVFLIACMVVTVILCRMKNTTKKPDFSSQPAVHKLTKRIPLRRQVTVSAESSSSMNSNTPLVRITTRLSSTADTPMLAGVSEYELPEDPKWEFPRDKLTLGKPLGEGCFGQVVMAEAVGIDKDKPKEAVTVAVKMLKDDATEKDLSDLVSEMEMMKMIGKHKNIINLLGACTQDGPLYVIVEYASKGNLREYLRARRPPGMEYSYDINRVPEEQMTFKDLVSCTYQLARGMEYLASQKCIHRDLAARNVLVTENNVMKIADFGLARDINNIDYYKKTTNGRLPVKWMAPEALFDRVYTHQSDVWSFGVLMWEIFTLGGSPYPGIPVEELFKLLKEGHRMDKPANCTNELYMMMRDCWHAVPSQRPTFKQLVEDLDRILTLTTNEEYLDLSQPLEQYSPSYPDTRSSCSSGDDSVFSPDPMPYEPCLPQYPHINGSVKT
wild-type un-phosphorylated FGFR4, sequence (P22455 22-802): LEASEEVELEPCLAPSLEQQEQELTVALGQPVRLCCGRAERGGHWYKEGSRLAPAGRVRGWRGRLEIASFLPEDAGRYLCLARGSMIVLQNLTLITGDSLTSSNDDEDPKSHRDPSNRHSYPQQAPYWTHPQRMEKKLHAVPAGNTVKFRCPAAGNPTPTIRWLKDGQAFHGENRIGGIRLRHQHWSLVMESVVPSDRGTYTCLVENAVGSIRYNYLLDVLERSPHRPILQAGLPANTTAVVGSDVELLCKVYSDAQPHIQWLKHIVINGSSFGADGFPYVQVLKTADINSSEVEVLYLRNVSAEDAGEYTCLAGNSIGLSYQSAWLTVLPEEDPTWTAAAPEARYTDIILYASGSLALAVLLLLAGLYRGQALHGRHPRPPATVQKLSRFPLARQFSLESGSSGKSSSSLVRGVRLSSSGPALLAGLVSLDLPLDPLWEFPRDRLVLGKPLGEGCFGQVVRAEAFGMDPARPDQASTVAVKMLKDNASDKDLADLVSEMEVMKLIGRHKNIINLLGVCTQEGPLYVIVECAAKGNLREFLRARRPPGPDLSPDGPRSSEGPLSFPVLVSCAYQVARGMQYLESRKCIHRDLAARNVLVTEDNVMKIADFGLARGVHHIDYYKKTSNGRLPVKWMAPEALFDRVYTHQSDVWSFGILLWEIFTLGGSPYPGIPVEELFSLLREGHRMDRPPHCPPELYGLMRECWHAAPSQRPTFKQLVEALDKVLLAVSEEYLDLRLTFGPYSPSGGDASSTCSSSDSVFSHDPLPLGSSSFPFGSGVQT
wild-type un-phosphorylated FGFR3, sequence (P22607 23-806): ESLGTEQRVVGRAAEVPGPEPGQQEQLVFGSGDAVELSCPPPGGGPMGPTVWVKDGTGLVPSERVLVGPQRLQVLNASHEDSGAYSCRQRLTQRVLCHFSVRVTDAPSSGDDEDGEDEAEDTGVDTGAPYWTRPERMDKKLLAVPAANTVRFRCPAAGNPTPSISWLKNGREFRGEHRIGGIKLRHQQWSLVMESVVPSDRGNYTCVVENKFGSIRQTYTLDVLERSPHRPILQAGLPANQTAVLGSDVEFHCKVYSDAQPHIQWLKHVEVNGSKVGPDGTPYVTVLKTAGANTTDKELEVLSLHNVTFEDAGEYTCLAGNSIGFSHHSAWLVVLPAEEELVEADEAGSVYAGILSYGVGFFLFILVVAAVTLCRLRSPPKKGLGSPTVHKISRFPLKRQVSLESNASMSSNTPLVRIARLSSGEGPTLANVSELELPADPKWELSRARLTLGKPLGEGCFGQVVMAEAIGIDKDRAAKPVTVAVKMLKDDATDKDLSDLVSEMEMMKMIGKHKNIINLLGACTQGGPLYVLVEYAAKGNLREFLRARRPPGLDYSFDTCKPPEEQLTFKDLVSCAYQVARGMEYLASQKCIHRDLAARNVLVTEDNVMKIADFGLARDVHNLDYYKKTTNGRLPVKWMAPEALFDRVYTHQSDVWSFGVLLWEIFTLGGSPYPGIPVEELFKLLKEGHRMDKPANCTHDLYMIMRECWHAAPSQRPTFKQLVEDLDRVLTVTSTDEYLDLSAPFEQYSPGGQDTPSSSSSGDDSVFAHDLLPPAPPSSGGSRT
wild-type un-phosphorylated FGFR1, sequence (P11362 22-822): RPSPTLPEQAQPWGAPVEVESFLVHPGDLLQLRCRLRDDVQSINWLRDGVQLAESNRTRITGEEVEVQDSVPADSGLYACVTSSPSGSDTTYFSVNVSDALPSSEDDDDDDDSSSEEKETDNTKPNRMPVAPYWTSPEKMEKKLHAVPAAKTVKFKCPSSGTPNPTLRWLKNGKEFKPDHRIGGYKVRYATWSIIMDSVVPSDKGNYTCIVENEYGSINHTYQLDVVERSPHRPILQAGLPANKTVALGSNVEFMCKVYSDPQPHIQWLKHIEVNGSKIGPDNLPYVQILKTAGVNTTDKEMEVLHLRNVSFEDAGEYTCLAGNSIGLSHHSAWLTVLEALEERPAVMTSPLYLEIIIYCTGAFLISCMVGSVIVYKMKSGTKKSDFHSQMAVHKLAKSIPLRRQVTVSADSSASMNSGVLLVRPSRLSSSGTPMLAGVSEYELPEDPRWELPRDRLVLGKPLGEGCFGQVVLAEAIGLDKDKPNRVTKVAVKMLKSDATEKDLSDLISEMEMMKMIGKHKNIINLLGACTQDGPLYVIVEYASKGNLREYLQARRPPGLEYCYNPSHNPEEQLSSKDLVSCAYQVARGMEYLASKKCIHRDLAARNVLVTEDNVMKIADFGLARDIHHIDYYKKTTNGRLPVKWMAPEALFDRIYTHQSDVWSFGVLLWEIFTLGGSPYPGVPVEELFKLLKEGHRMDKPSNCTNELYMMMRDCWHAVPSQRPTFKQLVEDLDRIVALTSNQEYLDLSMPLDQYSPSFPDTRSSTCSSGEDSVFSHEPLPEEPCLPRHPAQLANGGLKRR

Row | SMILES | pIC50 [1] | pIC50 [2] | pIC50 [3, 5] | pIC50 [4] | pIC50 [3, 6] | pIC50 [4, 7]
1 | COc1cc2[nH]nc(-c3ccc(N4CCN5C[C@H](O)C[C@H]5C4)nc3)c2nc1-c1cccc(C)c1C [Example 87, (7R,8aS)-2-(5-(5-(2,3-Dimethylphenyl)-6-methoxy-1H-pyrazolo[4,3-b]pyridin-3-yl)pyridin-2-yl)octahydropyrrolo[1,2-a]pyrazin-7-ol] | > 8.22 | > 8.22 | – | 7.00 to 7.40 | 7.00 to 7.40 | –
2 | COc1cc2[nH]nc(-c3cnn(C4CN(C(=O)C5CC5)C4)c3)c2nc1-c1cccc2c1CCC2 [Example 25, Cyclopropyl(3-(4-(5-(2,3-dihydro-1H-inden-4-yl)-6-methoxy-1H-pyrazolo[4,3-b]pyridin-3-yl)-1H-pyrazol-1-yl)azetidin-1-yl)methanone] | > 8.22 | > 8.22 | 7.40 to 8.22 | 7.00 to 7.40 | – | –
3 | COc1cc2[nH]nc(-c3cnn([C@H]4CCN(C(=O)[C@@H]5CCCO5)C4)c3)c2nc1-c1cccc2c1CCC2C#N (stereo partly drawn) [Example 169, 4-(6-Methoxy-3-(1-((S)-1-((S)-tetrahydrofuran-2-carbonyl)pyrrolidin-3-yl)-1H-pyrazol-4-yl)-1H-pyrazolo[4,3-b]pyridin-5-yl)-2,3-dihydro-1H-indene-1-carbonitrile] | > 8.22 | > 8.22 | 7.40 to 8.22 | 7.00 to 7.40 | – | –
4 | COc1cc2[nH]nc(-c3ccc(C45CC4CN(C4CCOCC4)C5)nc3)c2nc1-c1cccc2c1CCC2 (centres unmarked) [Example 193, 5-(2,3-Dihydro-1H-inden-4-yl)-6-methoxy-3-(6-(3-(tetrahydro-2H-pyran-4-yl)-3-azabicyclo[3.1.0]hexan-1-yl)pyridin-3-yl)-1H-pyrazolo[4,3-b]pyridine] | > 8.22 | > 8.22 | 7.40 to 8.22 | – | – | 7.40 to 8.22
5 | COc1cc2[nH]nc(-c3ccc(C4CCN(C(=O)CO)C4)nc3)c2nc1-c1cccc2c1CCC2 (single isomer, unassigned) [Example 101, 1-(3-(5-(5-(2,3-Dihydro-1H-inden-4-yl)-6-methoxy-1H-pyrazolo[4,3-b]pyridin-3-yl)pyridin-2-yl)pyrrolidin-1-yl)-2-hydroxyethan-1-one] | > 8.22 | > 8.22 | 7.40 to 8.22 | – | – | 7.40 to 8.22
6 | COc1cc2[nH]nc(-c3ccc(C45CC4CN(CCO)C5)cc3)c2nc1-c1cccc2c1CCC2 (centres unmarked) [Example 158, 2-(1-(4-(5-(2,3-Dihydro-1H-inden-4-yl)-6-methoxy-1H-pyrazolo[4,3-b]pyridin-3-yl)phenyl)-3-azabicyclo[3.1.0]hexan-3-yl)ethan-1-ol] | > 8.22 | > 8.22 | 7.40 to 8.22 | 7.00 to 7.40 | – | –
7 | COc1cc2[nH]nc(-c3ccc(N4CC(N(C)C(=O)CO)C4)nc3)c2nc1-c1cccc(C)c1C [Example 98, N-(1-(5-(5-(2,3-Dimethylphenyl)-6-methoxy-1H-pyrazolo[4,3-b]pyridin-3-yl)pyridin-2-yl)azetidin-3-yl)-2-hydroxy-N-methylacetamide] | > 8.22 | > 8.22 | – | < 7.00 | 7.00 to 7.40 | –
8 | COc1cc2[nH]nc(-c3ccc(C4(C#N)CCN(C(=O)CO)C4)nc3)c2nc1-c1cccc2c1CCC2 (centres unmarked) [Example 198, 3-(5-(5-(2,3-Dihydro-1H-inden-4-yl)-6-methoxy-1H-pyrazolo[4,3-b]pyridin-3-yl)pyridin-2-yl)-1-(2-hydroxyacetyl)pyrrolidine-3-carbonitrile] | > 8.22 | > 8.22 | 7.40 to 8.22 | 7.00 to 7.40 | – | –

More lines, now with the values ahead:

Row | pIC50 [1] | pIC50 [2] | pIC50 [3, 5] | pIC50 [4] | pIC50 [3, 6] | pIC50 [4, 7] | SMILES
9 | > 8.22 | > 8.22 | 7.40 to 8.22 | 7.00 to 7.40 | – | – | COc1cc2[nH]nc(-c3cnn(C4CN(C(=O)CCN(C)C)C4)c3)c2nc1-c1cccc2c1CCC2 [Example 117, 1-(3-(4-(5-(2,3-Dihydro-1H-inden-4-yl)-6-methoxy-1H-pyrazolo[4,3-b]pyridin-3-yl)-1H-pyrazol-1-yl)azetidin-1-yl)-3-(dimethylamino)propan-1-one]
10 | > 8.22 | > 8.22 | – | < 7.00 | 7.00 to 7.40 | – | COc1cc2[nH]nc(-c3ccc(C4CCC(N(C)S(C)(=O)=O)C4)nc3)c2nc1-c1cccc2c1CCC2 (centres unmarked) [Example 154, N-(3-(5-(5-(2,3-Dihydro-1H-inden-4-yl)-6-methoxy-1H-pyrazolo[4,3-b]pyridin-3-yl)pyridin-2-yl)cyclopentyl)-N-methylmethanesulfonamide]
11 | > 8.22 | > 8.22 | 7.40 to 8.22 | – | – | 7.40 to 8.22 | COc1cc2[nH]nc(-c3ccc(C4CCN(C(=O)CO)CC4)nc3)c2nc1-c1cccc2c1CCC2C#N (centres unmarked) [Example 115, 4-(3-(6-(1-(2-Hydroxyacetyl)piperidin-4-yl)pyridin-3-yl)-6-methoxy-1H-pyrazolo[4,3-b]pyridin-5-yl)-2,3-dihydro-1H-indene-1-carbonitrile]
